The record followed here is article PMC7611167 (Journal of medicinal chemistry, 2019).

For data set [1], the system named is A/Puerto Rico/8/34 (H1N1). It counts as cell-based, influenza A virus.
In the next data set the target is T1, aldehyde oxidase (AO) (Homo sapiens, UniProt Q06278).
T1 sequence (Q06278 1-1338): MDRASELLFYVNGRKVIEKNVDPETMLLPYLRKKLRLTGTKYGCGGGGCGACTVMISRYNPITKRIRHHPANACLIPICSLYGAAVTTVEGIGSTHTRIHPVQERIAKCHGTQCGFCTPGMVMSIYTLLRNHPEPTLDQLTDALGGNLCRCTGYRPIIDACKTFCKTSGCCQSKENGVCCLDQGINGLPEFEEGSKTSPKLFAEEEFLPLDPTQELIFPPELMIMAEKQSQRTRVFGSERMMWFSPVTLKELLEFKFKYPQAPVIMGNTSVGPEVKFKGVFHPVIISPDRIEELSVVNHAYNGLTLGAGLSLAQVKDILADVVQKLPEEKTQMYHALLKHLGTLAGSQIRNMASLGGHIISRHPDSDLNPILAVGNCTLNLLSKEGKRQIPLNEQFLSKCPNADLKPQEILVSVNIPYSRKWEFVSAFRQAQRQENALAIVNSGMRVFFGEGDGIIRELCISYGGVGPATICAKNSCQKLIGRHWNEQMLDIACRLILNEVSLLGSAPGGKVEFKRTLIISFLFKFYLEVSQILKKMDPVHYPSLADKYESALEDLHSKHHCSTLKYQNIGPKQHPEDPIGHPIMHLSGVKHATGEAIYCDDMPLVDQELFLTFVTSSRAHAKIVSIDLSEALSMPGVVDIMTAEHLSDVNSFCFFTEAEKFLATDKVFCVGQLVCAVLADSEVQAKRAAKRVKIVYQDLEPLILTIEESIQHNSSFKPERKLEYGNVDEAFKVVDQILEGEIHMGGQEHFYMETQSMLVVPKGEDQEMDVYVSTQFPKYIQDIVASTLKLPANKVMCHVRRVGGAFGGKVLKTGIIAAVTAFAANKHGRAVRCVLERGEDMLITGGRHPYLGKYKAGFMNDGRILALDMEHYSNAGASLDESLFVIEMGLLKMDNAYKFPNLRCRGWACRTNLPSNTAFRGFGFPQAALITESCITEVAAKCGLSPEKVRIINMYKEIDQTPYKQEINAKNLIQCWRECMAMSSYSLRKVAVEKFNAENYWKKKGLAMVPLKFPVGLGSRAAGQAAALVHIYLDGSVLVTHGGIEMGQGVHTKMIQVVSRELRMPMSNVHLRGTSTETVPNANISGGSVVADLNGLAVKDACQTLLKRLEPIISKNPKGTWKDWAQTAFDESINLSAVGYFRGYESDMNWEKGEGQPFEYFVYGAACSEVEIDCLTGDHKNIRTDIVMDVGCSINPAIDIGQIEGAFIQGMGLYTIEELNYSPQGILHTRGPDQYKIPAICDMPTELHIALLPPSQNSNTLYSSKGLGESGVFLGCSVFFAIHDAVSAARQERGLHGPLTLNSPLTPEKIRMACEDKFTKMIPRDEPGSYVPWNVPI
In words: Aldehyde oxidase metabolism in human liver cytosol. It counts as in vitro ADME. To be noted: 1 μM, 1 mg/mL protein, 37°C, up to 60 minutes, with or without Raloxifene.

The next data set deals with GSK3β (Homo sapiens, UniProt P49841). In words: Kinase panel, GSK3β. Format: biochemical. Particulars: at 1μM.
Data set [2] relates to influenza A/Puerto Rico/8/34 (H1N1). Particulars: mouse, in vivo, po, 30 mg/kg.
The next data set has as its system panel of 59 kinases. In words: Kinase panel. Format: biochemical.

Chain of GSK3β (P49841 whole entry, species assumed): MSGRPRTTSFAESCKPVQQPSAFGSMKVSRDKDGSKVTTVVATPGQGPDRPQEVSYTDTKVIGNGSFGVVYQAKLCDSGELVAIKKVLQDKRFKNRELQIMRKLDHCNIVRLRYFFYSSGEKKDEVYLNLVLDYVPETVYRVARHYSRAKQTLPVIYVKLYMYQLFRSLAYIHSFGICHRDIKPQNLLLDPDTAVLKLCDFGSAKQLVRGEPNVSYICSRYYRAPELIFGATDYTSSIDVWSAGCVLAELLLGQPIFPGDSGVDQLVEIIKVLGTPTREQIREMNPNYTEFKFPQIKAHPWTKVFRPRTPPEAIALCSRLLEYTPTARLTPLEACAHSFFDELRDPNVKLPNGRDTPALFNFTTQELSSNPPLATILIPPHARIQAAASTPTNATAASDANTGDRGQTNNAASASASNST

Regarding `O=C(O)[C@H]1C2CCC(CC2)[C@@H]1Nc1nc(-c2c[nH]c3c(F)cc(Cl)cc23)ncc1F` [Compound 11b, (2S,3S)-3-((2-(5-chloro-7-fluoro-1H-indol-3-yl)-5-fluoropyrimidin-4-yl)amino)bicyclo-[2.2.2]octane-2-carboxylic acid], the “A/Puerto Rico/8/34 SI (selectivity index, CC50/IC50)” value in data set [1] was over 485.

As for `N#Cc1cc(F)c2[nH]cc(-c3ncc(F)c(N[C@H]4C5CCC(CC5)[C@@H]4C(=O)O)n3)c2c1` [Compound 11d, (2S,3S)-3-((2-(5-cyano-7-fluoro-1H-indol-3-yl)-5-fluoropyrimidin-4-yl)amino) bicyclo[2.2.2]octane-2-carboxylic acid], the “A/Puerto Rico/8/34 SI (selectivity index, CC50/IC50)” value in data set [1] is over 612.

With `CCOC(=O)C1=C[C@@H](OC(CC)CC)[C@H](NC(C)=O)[C@@H](N)C1` [Oseltamivir, reference compound], the “A/Puerto Rico/8/34 SI (selectivity index, CC50/IC50)” value in data set [1] was over 4132.

On to `c1ccc2cnncc2c1` [phthalazine], for which, on aldehyde oxidase (AO), the “Aldehyde oxidase (AO) metabolism in human liver cytosol” value was “AO metabolism in the normal range”.

For the compound `O=C(O)[C@H]1C2CCC(CC2)[C@@H]1Nc1nc(-c2c[nH]c3c(F)cc(F)cc23)ncc1F` [Compound 11a, (2S,3S)-3-((2-(5,7-difluoro-1H-indol-3-yl)-5-fluoropyrimidin-4-yl)amino)bicyclo [2.2.2]octane-2-carboxylic acid], the GSK3β inhibition entry on GSK3β is “no inhibition”. Further, the Body weight course result in data set [2] is “regained weight from day 11”. Further, in the data set on panel of 59 kinases, the “Activity across a panel of 59 kinases” value was “inactive”.
